Laboratory results taken from EP1311531B1, “STEROID DERIVED ANTIBIOTICS” (Brigham Young University, priority 2000, dated 2002).
Converted amounts (≈) assume the structure as drawn. Read-outs that look alike come from different tables or passages of the source.

Assays:
[1] = system: Escherichia coli ATCC 25922; settings: ATCC25922
[2] = system: E. coli (ATCC 10798); test: Sensitization to erythromycin or novobiocin (outer membrane permeabilization, FIC); assay type: cell-based, Escherichia coli; settings: for (a) Concentration required to lower the MIC of erythromycin from 70 to 1 µg/mL / (b) MBC with 1 µg/mL erythromycin / (d) Concentration required to lower the MIC of novobiocin from >500 to 1 µg/mL / FIC^c (FIC values with erythromycin) / FIC^c (FIC values with novobiocin): Table 9, Escherichia coli (ATCC 10798)
Experimental: (§1) FICs can be performed by checkerboard titrations of compounds in one dimension of a microtiter plate, and of antibiotics in the other dimension, for example. The FIC is calculated by looking at the impact of one antibiotic on the MIC of the other and vice versa. […] Preferably, an FIC of less than 0.5 is obtained for synergism. As used herein, FIC can be determined as follows: FIC = (MIC(compound in combination))/(MIC(compound alone)) + (MIC(antibiotic in combination))/(MIC(antibiotic alone)) [formula]
(§2) Aliquots of 1 mL of the suspension were added to test tubes containing 1 mL TSB and incrementally varied concentrations of cholic acid derivatives and/or erythromycin or novobiocin. In the sensitization experiments, erythromycin or novobiocin were added 15 minutes later than the cholic acid derivatives. The samples were subjected to stationary incubation at 37°C for 24 hours. Sample turbidity was determined by measuring absorption at 760 nm (HP 8453 UV-Visible Chemstation, Hewlett Packard). Additionally, an alliquot from each of the samples showing no measurable turbidity was subcultured on TSA plates (alliquots were diluted to provide fewer than 300 CFU). Colonies that grew on the subculture after overnight incubation were counted and the number of CFU/mL in the samples were calculated. The calculated values were compared to the number of CFU/mL in the original inoculum.
They were also tested for the ability to permeabilize the outer membrane of Gram-negative bacteria, causing sensitization to hydrophobic antibiotics that cannot cross the outer membrane. The permeabilization of the outer membrane was measured using erythromycin and novobiocin.

[3] = system: Enterococcus faeculis ATCC 29212; test: MIC and MBC measurement; assay type: cell-based, Enterococcus faecalis; settings: ATCC29212
Experimental: (§3) General: Microorganisms. Reference strains were purchased from the American Type Culture Collection (Rockville, MD) or Bactrol disks from Difeo Laboratories (Detroit, MI). […] Bacterial strains were maintained on Mueller-Hinton agar plates, and Candida albicans was maintained on Sabouraud Dextrose agar plates.
(§4) Aliquots (20 mL) of the homogeneous solution were then poured in sterile plastic petri dishes (100 x 15 mm, Fisher Scientific). Solutions of compounds were made by dissolving the HCl salt of the respective compound into an appropriate amount of deionized and sterilized water followed by microfiltration.
as §2, with “In the sensitization experiments, erythromycin or novobiocin were added 15 minutes later than the cholic acid derivatives. The samples were subjected to stationary incubation at 37°C for 24 hours. Sample turbidity was determined by measuring absorption at 760 nm (HP 8453 UV-Visible Chemstation, Hewlett Packard).” left out

[4] = system: Staphylococcus aureus ATCC 25923; test: MIC and MBC measurement; assay type: cell-based; settings: ATCC25923, Table 10, Staphylococcus aureus ATCC 25923; for MIC: read-out: MIC
From the text: (§5) General: Microorganisms. Reference strains were purchased from the American Type Culture Collection (Rockville, MD) or Bactrol disks from Difeo Laboratories (Detroit, MI). The following specific ATCC strains were used: 10798 Escherichia coli, 25922 Escherichia coli, 13883 Klebsiella pneumoniae, 27853 Pseudomonas aeruginosa, 14028 Salmonella typhimurium, 29212 Enterococcus faecalis, 25923 Staphylococcus aureus, 19615 Streptococcus pyogenes, and 90028 Candida albicans. Bacterial strains were maintained on Mueller-Hinton agar plates, and Candida albicans was maintained on Sabouraud Dextrose agar plates.
(§6) Tryptic soy broth (TSB) was made by dissolving 27.5 grams of tryptic soy broth without dextrose (DIFCO Laboratories) in 1 liter of deionized water and sterilizing at 121 °C for 15 minutes. Solid agar (TSA) plates were made by dissolving 6.4 grams of tryptic soy broth and 12 grams of agar (purified grade, Fischer Scientific) in 800 mL of deionized water and sterilizing at 121 °C for 20 minutes. Aliquots (20 mL) of the homogeneous solution were then poured in sterile plastic petri dishes (100 x 15 mm, Fisher Scientific). Solutions of compounds were made by dissolving the HCl salt of the respective compound into an appropriate amount of deionized and sterilized water followed by microfiltration.
as §2, with “inoculum. […]” for “inoculum.”

[5] = system: Escherichia coli ATCC 25922; test: MIC and MBC measurement; assay type: cell-based; settings: Escherichia coli, ATCC25922, Table 10, Escherichia coli ATCC 25922; for MIC: read-out: MIC
From the text: as §5, §6
as §2, with “inoculum. […]” for “inoculum.”

[6] = system: Klebsiella pneumonia ATCC 13883; test: Sensitization to erythromycin, novobiocin or rifampicin (permeabilization, FIC); assay type: cell-based, Klebsiella pneumoniae
[7] = system: E. coli (ATCC 10798); test: MIC and MBC measurement; assay type: cell-based, Escherichia coli
Experimental: as §3, §4
as §2, with “In the sensitization experiments, erythromycin or novobiocin were added 15 minutes later than the cholic acid derivatives. The samples were subjected to stationary incubation at 37°C for 24 hours. Sample turbidity was determined by measuring absorption at 760 nm (HP 8453 UV-Visible Chemstation, Hewlett Packard).” left out

[8] = system: Pseudomonas aeruginosa ATCC 27853; test: Sensitization to erythromycin, novobiocin or rifampicin (permeabilization, FIC); assay type: cell-based
Experimental: as §1, §2
(§7) Concentrations of 0.5, 1.0 or 3.0 µg/mL of these antibiotics were used, and the concentrations of the cholic acid derivatives required to inhibit bacterial growth of Gram-negative strains were determined.

[9] = system: Salmonella typhimurium ATCC 14028; test: as above; assay type: cell-based
Experimental: as §1, §2, §7

[10] = Table 12, with novobiocin (order of b151), Klebsiella pneumonia ATCC 13883
[11] = Table 13, with rifampicin (order of b151), Klebsiella pneumonia ATCC 13883
[12] = Table 9, Escherichia coli (ATCC 10798)
[13] = Table 12, with novobiocin (order of b151), Pseudomonas aeruginosa ATCC 27853
[14] = Table 13, with rifampicin (order of b151), Pseudomonas aeruginosa ATCC 27853^b (footnote b not given)
[15] = Table 11, with erythromycin (order of b151)
[16] = Table 12, with novobiocin (order of b151)

Row | Compound | concentration required for bacterial growth inhibition [1] | (a) Concentration required to lower the MIC of erythromycin from 70 to 1 µg/mL [2] | (b) MBC with 1 µg/mL erythromycin [2] | (d) Concentration required to lower the MIC of novobiocin from >500 to 1 µg/mL [2] | FIC^c (FIC values with erythromycin) [2] | FIC^c (FIC values with novobiocin) [2] | MBC [3] | MIC [3] | MBC [4] | MIC [4] | MBC [5] | MIC [5] | FIC ([6]; ATCC13883) | concentration required for bacterial growth inhibition ([6]; ATCC13883) | concentration required for bacterial growth inhibition [6, 10] | FIC [6, 11] | concentration required for bacterial growth inhibition [6, 11] | FIC ([8]; ATCC27853) | concentration required for bacterial growth inhibition ([8]; ATCC27853) | concentration required for bacterial growth inhibition [8, 13] | other results
1 | C[C@H](CCCO)[C@H]1CC[C@H]2[C@@H]3[C@H](OCCCN)C[C@@H]4C[C@H](OCCCN)CC[C@]4(C)[C@H]3C[C@H](OCCCN)[C@]12C [Compound 10] | 0.30 µg/mL | 2.0 µg/mL | 50 µg/mL | 4.0 µg/mL | 0.070 | 0.11 | 19 µg/mL (≈ 33.6 µM) | 3.3 µg/mL (≈ 5.83 µM) | 9.2 µg/mL (≈ 16.3 µM) | 2 µg/mL (≈ 3.53 µM) | 40 µg/mL (≈ 70.7 µM) | 36 µg/mL (≈ 63.6 µM) | 0.035 | 0.21 µg/mL | 0.73 µg/mL | 0.030 | 0.16 µg/mL | 0.13 | 2.1 µg/mL | 5.3 µg/mL | MBC ([2]; Escherichia coli, ATCC10798, Table 2, E. coli (ATCC 10798), with erythromycin): 50 µg/mL; concentration required to lower the MIC of erythromycin from 70 µg/mL to 1 µg/mL ([2]; Table 2, E. coli (ATCC 10798), with erythromycin): 2 µg/mL; MBC ([7]; Escherichia coli, ATCC10798, Table 1, E. coli (ATCC 10798), read-out: MBC): 60 µg/mL (≈ 106 µM); MIC ([7]; Escherichia coli, ATCC10798, Table 1, E. coli (ATCC 10798), read-out: MIC): 36 µg/mL (≈ 63.6 µM); MBC [7, 12]: 60 µg/mL (≈ 106 µM); MIC [7, 12]: 36 µg/mL (≈ 63.6 µM); concentration required to lower the MIC of erythromycin from 240 µg/mL to 5 µg/mL ([8]; Table 7, P. aureginosa (ATCC 27853), with erythromycin): 7 µg/mL; FIC [8, 14]: 0.083; FIC [9, 15]: 0.037; concentration required for bacterial growth inhibition [9, 15]: 0.87 µg/mL; FIC [9, 16]: 0.052; concentration required for bacterial growth inhibition [9, 16]: 1.8 µg/mL
2 | C[C@]12CC[C@@H](OCCCN)C[C@H]1C[C@@H](OCCCN)[C@@H]1[C@@H]2C[C@H](OCCCN)[C@]2(C)[C@@H](O)CC[C@@H]12 [Compound 106] | 4.7 µg/mL | 30 µg/mL | 160 µg/mL | 50 µg/mL | 0.23 | 0.36 | > 100 µg/mL | 12 µg/mL (≈ 24.2 µM) | 54 µg/mL (≈ 109 µM) | 8.6 µg/mL (≈ 17.3 µM) | 90 µg/mL (≈ 182 µM) | 80 µg/mL (≈ 161 µM) | 0.66 | 3.6 µg/mL | 8.9 µg/mL | 0.044 | 1.8 µg/mL | 0.22 | 16 µg/mL | 30 µg/mL | MBC ([7]; ATCC10798, Table 9, Escherichia coli (ATCC 10798), read-out: MBC): > 200 µg/mL; MIC ([7]; ATCC10798, Table 9, Escherichia coli (ATCC 10798), read-out: MIC): 140 µg/mL (≈ 282 µM); FIC [8, 14]: 0.17; FIC [9, 15]: 0.088; concentration required for bacterial growth inhibition [9, 15]: 7.1 µg/mL; FIC [9, 16]: 0.094; concentration required for bacterial growth inhibition [9, 16]: 8.4 µg/mL
